Experiment: molar heat capacity at constant pressure
Conditions: 101.33 kPa, Liquid, heat bridge-scanning calorimeter

CCCCn1cc[n+](C)c1.F[P-](F)(F)(F)(F)F [1-butyl-3-methylimidazolium hexafluorophosphate]
Conditions | molar heat capacity at constant pressure [J/K/mol]
380.71 K | 456.97
380.84 K | 457.53
380.98 K | 457.25
381.25 K | 457.53
381.38 K | 456.97
381.51 K | 456.68
381.63 K | 456.68
381.76 K | 456.68
381.89 K | 456.97
382.01 K | 457.53
382.14 K | 457.82
382.27 K | 457.53
382.56 K | 457.53
382.68 K | 458.39
382.81 K | 457.82
382.94 K | 458.1
383.06 K | 458.39
383.19 K | 458.67
383.32 K | 458.67
383.45 K | 458.39
383.57 K | 457.82
383.7 K | 457.82
383.83 K | 457.53
384.1 K | 458.1
384.23 K | 457.82
384.36 K | 458.1
384.48 K | 458.67
384.61 K | 459.24
384.74 K | 458.95
384.86 K | 458.39
384.99 K | 457.82
385.12 K | 458.1
385.41 K | 459.52
385.54 K | 460.09
385.66 K | 459.81
385.79 K | 459.52
385.92 K | 459.24
386.05 K | 459.52
386.18 K | 460.09
386.3 K | 460.09
386.43 K | 459.81
386.56 K | 460.09
386.69 K | 460.38
386.97 K | 460.38
387.1 K | 460.09
387.23 K | 460.09
387.36 K | 459.81
387.49 K | 460.09
387.61 K | 460.38
387.74 K | 460.38
387.87 K | 460.09
388 K | 460.09
388.28 K | 461.23
388.41 K | 460.94
388.54 K | 461.23
388.67 K | 461.51
388.79 K | 461.51
388.92 K | 461.51
389.05 K | 461.51
389.18 K | 461.8
389.3 K | 461.8
389.43 K | 461.51
389.56 K | 461.8
389.84 K | 461.8
389.96 K | 462.08
390.09 K | 462.08
390.22 K | 462.36
390.35 K | 462.93
390.47 K | 462.93
390.6 K | 463.79
390.73 K | 464.07
390.86 K | 463.5
391.15 K | 463.5
391.27 K | 464.35
391.4 K | 464.64
391.53 K | 464.35
391.66 K | 464.64
391.79 K | 464.07
391.92 K | 464.07
392.05 K | 463.79
392.17 K | 463.79
392.3 K | 464.35
392.43 K | 464.92
392.71 K | 464.07
392.84 K | 464.07
392.97 K | 464.07
393.11 K | 464.07
393.24 K | 464.07
393.36 K | 464.35
393.49 K | 464.35
393.62 K | 464.64
393.75 K | 465.21
394.04 K | 465.21
394.17 K | 465.21
394.3 K | 465.49
394.42 K | 465.49
394.55 K | 465.77
394.68 K | 466.34
394.81 K | 467.48
394.94 K | 467.48
395.07 K | 467.2
395.2 K | 466.63
395.32 K | 466.63
395.6 K | 466.91
395.73 K | 466.91
395.86 K | 467.2
395.99 K | 468.05
396.12 K | 468.33
396.24 K | 468.33
396.37 K | 468.33
396.5 K | 468.62
396.63 K | 469.47
396.92 K | 469.19
397.05 K | 468.62
397.18 K | 468.9
397.31 K | 468.9
397.44 K | 469.19
397.56 K | 469.19
397.69 K | 469.47
397.82 K | 469.19
397.95 K | 469.19
398.08 K | 469.47
398.21 K | 469.47
398.49 K | 469.19
398.62 K | 469.47
398.75 K | 470.04
398.88 K | 470.32
399.01 K | 470.61
399.15 K | 470.61
399.28 K | 470.89
399.41 K | 471.17
399.53 K | 472.03
399.82 K | 471.17
399.95 K | 470.89
400.08 K | 470.89
400.21 K | 470.61
400.34 K | 471.17
400.47 K | 471.74
400.6 K | 471.74
400.73 K | 472.6
400.86 K | 472.03
400.99 K | 471.74
401.12 K | 471.74
401.41 K | 472.6
401.54 K | 472.31
401.67 K | 471.74
401.8 K | 472.03
401.93 K | 472.03
402.06 K | 472.31
402.19 K | 472.03
402.32 K | 471.46
402.45 K | 471.46
402.74 K | 471.74
402.87 K | 471.46
403 K | 471.74
403.13 K | 472.03
403.26 K | 472.03
403.39 K | 472.03
403.52 K | 472.03
403.65 K | 472.03
403.78 K | 472.31
403.91 K | 472.31
404.04 K | 472.6
404.32 K | 472.31
404.45 K | 472.31
404.58 K | 472.31
404.71 K | 473.16
404.84 K | 473.73
404.98 K | 473.73
405.11 K | 473.16
405.24 K | 472.88
405.38 K | 472.03
405.67 K | 472.88
405.8 K | 473.73
405.93 K | 474.02
406.06 K | 474.02
406.2 K | 473.73
406.33 K | 473.45
406.46 K | 472.88
406.59 K | 472.88
406.72 K | 473.16
406.85 K | 473.45
406.98 K | 473.73
407.27 K | 474.02
407.4 K | 473.73
407.53 K | 473.45
407.66 K | 473.45
407.79 K | 473.16
407.92 K | 473.16
408.05 K | 472.88
408.19 K | 473.45

Source: the NIST ThermoML archive (doi:10.1021/je034102r)
